The values below come from PMC6701825, “Antiproliferative and Antimigratory Effects of a Novel YAP–TEAD Interaction Inhibitor Identified Using in Silico Molecular Docking” (Journal of Medicinal Chemistry, 2019).

The test system of series [1] is CCN1 promoter. Briefly: CCN1-luciferase reporter in HeLa cells. To be noted: 6 h, indicated concentrations. Format: cell-based, human. The text has this:
(§1) Activation of TEAD transcription factors in response to YAP binding induces the expression of many genes that encode proteins known to be involved in promoting cell proliferation and migration (see Supplement Figure 14). The best characterized TEAD target genes associated with the promotion of cell proliferation and migration are CCN1 and CTGF.[39],[59],[60] […] We therefore tested whether CPD3 inhibited the promoter activity of known TEAD target genes, CCN1 and CTGF, in the HeLa transformed cell line and primary rat VSMCs (RaVSMCs). Cells were transfected with plasmids expressing bioluminescent firefly luciferase reporter genes under the control of either the CCN1 or CTGF promoter regions. […] As both CCN1 and CTGF are classical TEAD target genes, this is consistent with the inhibition of TEAD activity by CPD3.
(§2) TNT1-minP reporter containing the Troponin-T minimal promoter was generated by digesting 8xGTIIC-luciferase plasmid (Addgene #34615) with Kpn1 and BglII to remove the TEAD elements, followed by blunt end re-ligation. A 2.177 kb fragment of the human CCN1 promoter containing two proximal TEAD elements (Hg19;chr1:86044316–chr1:86046493) was described previously[39] and cloned into pGL4-luciferase (Promega). […]

Series [2] concerns TEAD-independent minimal TNT1 gene promoter. Briefly: Minimal TNT1 promoter-luciferase (minP-LUC) reporter in HeLa cells. To be noted: 6 h. Format: cell-based, human.
From the text: as §1, §2

The test system of series [3] is CCN1 promoter. Briefly: CCN1-luciferase reporter in RaVSMCs. It is filed as cell-based, rat.
From the text: as §1
Figure 9 Compound 3.1 inhibits TEAD target gene expression, cell proliferation, and cell migration in RaVSMCs. […] Total RNA was analyzed for mRNA levels of TEAD-target genes (D) or constitutive housekeeping genes (E) by qRT-PCR. […] Total cell lysates were analyzed for CCN1 protein expression by Western blotting (F). […] RaVSMCs (I) or HuVSMC (J) were treated with indicated concentrations of compound 3.1 and cell migration quantified using IncuCyte real time migration assay (n = 4). […]

In series [4] the test system is housekeeping genes PGK1, TBP, GAPDH, 36B4. Briefly: qRT-PCR of TEAD-independent housekeeping gene mRNA in RaVSMCs. It is filed as cell-based, rat. As for the experimental part:
Figure 9 Compound 3.1 inhibits TEAD target gene expression, cell proliferation, and cell migration in RaVSMCs. RaVSMCs stably transduced with TEAD-NLUC (A) or transiently transfected with CCN1-LUC or CTGF-LUC were treated with the indicated concentrations of compound 3.1 for 6 hr. Cell conditioned media (A) or cell lysates (B−C) were assayed for nanoluciferase or fire-fly luciferase activity, respectively. VSMC were treated with 60 μM compound 3.1 for 6 h (n = 3). Total RNA was analyzed for mRNA levels of TEAD-target genes (D) or constitutive housekeeping genes (E) by qRT-PCR. VSMC were treated with indicated concentrations of compound 3.1 for 16 hr (n = 4). Total cell lysates were analyzed for CCN1 protein expression by Western blotting (F). […] RaVSMCs (I) or HuVSMC (J) were treated with indicated concentrations of compound 3.1 and cell migration quantified using IncuCyte real time migration assay (n = 4).
Quantitative reverse transcription (RT)-PCR: quantification of mRNA was performed by RT-qPCR, as described previously.[39] Total RNA was extracted using Ambion PureLink kits (Thermo Fisher) and reverse-transcribed using QuantiTect RT kit (Qiagen) and random primers. Quantitative PCR was performed using Roche SYBR Green using a Qiagen Roto-GeneRotor-Gene Q PCR machine (20 seconds@95 °C; 20 seconds @62 °C; 20 seconds@72 °C). […]
In general terms: In qPCR the cycle at which signal appears reflects the starting amount.

The subject of series [5] is HeLa cells. Briefly: EdU proliferation assay in HeLa cells. It is filed as cell-based, human. To be noted: for cell proliferation (EdU incorporation): 18 h then 6 h 10 μM EdU. As for the experimental part: (§3) Cell proliferation was measured using the Click-iT EdU 488 assay (Sigma-Aldrich). Briefly, the cells were treated with indicated concentrations of compounds for 24 h with the last 4 h being in the presence of 10 μM EdU. The cells were fixed in 4% formaldehyde and stained for EdU incorporation, following the kit’s standard protocol. The cells were counterstained with Hoechst 33342 nucleic acid for 20 min. Fluorescent images of at least three fields of view per well were counted using ImageJ software. Real-time analysis of cell migration was performed using an IncuCyte ZOOM live cell imaging system (Essen BioScience) according to the manufacturer’s instructions. Briefly, the cells were seeded (1.2 × 10^4 cells/well for HeLa cells, 1.5 × 10^4 cells/well for RaVSMCs, and 1 × 10^4 cells/well) into ImageLock 96-well plates. After 36 h, the cells were pretreated overnight with indicated concentrations of compounds. The wells were scratched using a WoundMaker tool, and the media were replaced containing test compounds. Phase contrast images of cell migration into the wounded area were acquired hourly for 24 h. Relative wound confluence was calculated using the Cell Migration Image analysis module of the IncuCyte ZOOM software.

For the next series, the system named is RaVSMCs. Briefly: Real-time IncuCyte scratch wound migration assay in RaVSMCs. It is filed as cell-based, rat. As for the experimental part:
as §3
Supplement Figure 5: Effect of low micromolar doses of CPD3 on rat VSMC migration.
VSMC were incubated with the indicated doses of CPD3 for 18 hours before quantification […]

The subject of series [6] is HeLa cells. Briefly: Live/dead cell viability assay (ethidium homodimer-1) in HeLa cells. It is filed as cell-based. As for the experimental part:
Cell viability was quantified using the live/dead viability/cytotoxicity assay standard protocol (Invitrogen). Maximum cell death was quantified by incubating cells for 10 min with 0.1% Triton-X, followed by incubation with 0.4 μM ethidium homodimer-1 for an additional 10 min. Fluorescence was measured using a GloMax Discover multiplate reader (Promega).
Supplement Figure 3: Effect of shortlisted compounds on cell viability
HeLa cells transduced with TEAD-NLUC reporter were treated with indicated compounds at 100 µM for 6 hours (n=3). Cell viability was quantified by staining with 0.4 µM ethidium homodimer-1 and ethidium homodimer-1 uptake quantified by measuring fluorescence at 645 nm using a Glomax Discover plate reader.
(1 picture or pasted object on this page, not shown here)
Supplement Figure 6: Effect of CPD3, CPD3.1, CPD3.2 and CPD 3.3 on cell viability HeLa cells transduced with TEAD-NLUC reporter were treated with indicated concentrations of CPD3, CPD3.1, CPD3.2 and CPD 3.3 for 6 hours (n=3). Cell viability was quantified by staining with 0.4 µM ethidium homodimer-1 and ethidium homodimer-1 uptake quantified by measuring fluorescence at 645 nm using a Glomax Discover plate

Where two headings read alike, the source gives them in different places.

A word on the IC50: it is the point on the concentration scale where inhibition reaches its midpoint. For `Cc1ccc2c(c1)c1c3n2CCNC3CCC1` (stereo not shown) [CPD3.1], the “CCN1-luciferase reporter gene activity” value in the series on CCN1 promoter [1] is on record as “dose-dependent inhibition”. For the same compound, the “activity of TEAD-independent minimal TNT1 promoter (minP-LUC)” value in series [2] is “without affecting expression”. The IC50 with CCN1 promoter [3] (Rattus norvegicus, 6 hr, read-out: IC50, CCN1-LUC (as printed in Figure 9B)) is 48 µM. Also, in series [4] (VSMC, 60 μM, 6 h), the “steady-state mRNA levels of housekeeping genes PGK1, TBP, GAPDH, 36B4” value was “unaffected”. In the series with HeLa cells [5], the “doses at which EdU incorporation was significantly inhibited” value is on record as “above 40 μM” and the “cell proliferation (EdU incorporation)” value is “dose-dependently inhibited HeLa cell proliferation”. Moreover, in the series with RaVSMCs, the “cell migration (scratch wound)” value is “inhibited in a dose-dependent manner by 2, 10, and 20 μM CPD3.1”. Besides, the “effect on cell viability” value with HeLa cells [6] is “without affecting cell viability”.

Regarding `Cc1ccc2c(c1)c1c3n2CCN(CC(O)CN2CCN(C(=O)c4ccco4)CC2)C3CCC1` (stereo not shown) [CPD3], the “CCN1-luciferase reporter gene activity” value in the series on CCN1 promoter [1] was “strong and significant dose-dependent inhibition”; with CCN1 promoter [3] (6 h, indicated concentrations), “strong and significant dose-dependent inhibition”. The “activity of TEAD-independent minimal TNT1 promoter (minP-LUC)” value in series [2] is given as “not inhibited by any concentration”. Also, the “steady-state mRNA level of housekeeping gene 36B4” value in series [4] (RaVSMCs, Supplement Figure 4) is “but not the TEAD-independent housekeeping gene 36B4”. Besides, the “cell proliferation (EdU incorporation)” value in the series with HeLa cells [5] is given as “dose-dependently inhibited cell proliferation”. For the same compound, the “cell migration (scratch wound)” value with RaVSMCs is on record as “dose-dependently inhibited”. Besides, the “effect on cell viability” value in the series on HeLa cells [6] (100 µM, 6 hours, HeLa TEAD-NLUC cells) is “without significantly affecting cell viability”; in the series on HeLa cells [6] (indicated concentrations, 6 hours, HeLa (Supplement Figure 6)) it was “did not affect cell viability”.
